For assay [1], the target named is T1, p53 Y220C mutant protein (amino acid residues 94-293) (Homo sapiens, UniProt P04637, Y220C).
T1 construct: p53 Y220C mutant protein (amino acid residues 94-293)
The experiment in a line: Surface Plasmon Resonance (SPR) assay, p53 Y220C Kd_kinetic. The conditions noted are these: multi-cycle kinetics, 16 or 20 °C, pH 7.5, 1:1 binding model. The procedure, abridged: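 Kd from multi-cycle SPR kinetics fitted to a 1:1 model, using 2-fold, 7-point compound series over p53 Y220C (residues 94-293). Flow 30 μL/min, 60 s association, 120 s dissociation, at 16 or 20 °C in 50 mM Tris pH 7.5, 100 mM NaCl, 1 mM DTT, 0.01% Brij35, 0.05% Tween-20, 1% DMSO.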

A further assay has as its target p53 Y220C (Homo sapiens, UniProt P04637, Y220C). The experiment in a line: Luciferase Reporter Assay, p53 Y220C (NCIH1299 cells with inducible p53 Y220C and p53 response element-luciferase). Type of assay: cell-based. The conditions noted are these: 6 hour compound treatment, read-out: Luc P53 Y220C AC50. The procedure, abridged:
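NCI-H1299 cells stably carrying a p53 response element-luciferase reporter and Tet-inducible p53 Y220C were induced with 0.5 ug/mL doxycycline for 24 h, then treated with compound for 6 h. Luminescence was read after One-Glo addition. AC50 was derived relative to 10 uM tool compound as positive control.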

Another assay has as its system NUGC3 cells (p53 Y220C). The experiment in a line: Cell Proliferation Assay (CellTiter-Glo), NUGC3 p53 Y220C. The format is cell-based. The following applies: Homo sapiens, NUGC-3, 120 h, 5 days, read-out: CTG NUGC3 P53 Y220C IC50. The procedure, abridged:
(§1)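 Seeded at 250–500 cells/well, then compound-treated for 5 days; the NCIH1299 lines carry Tet-One inducible p53 Y220C or R273H transduced lentivirally. Viability by CellTiter-Glo luminescence after 10 min at room temperature; IC50 calculated.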

The test system of assay [2] is NCIH1299-inducible p53 Y220C cells. The assay can be described thus: Cell Proliferation Assay (CellTiter-Glo), NCIH1299-inducible p53 Y220C. The format is cell-based. The following applies: Homo sapiens, NCI-H1299, 120 h, 5 days, read-out: CTG H1299 P53 Y220C IC50. In a few lines:
as §1
A general note: In ATP-based viability assays light output follows the ATP content of the culture.

What is called Kd is the concentration at which binding is half-saturated. The term AC50 denotes the midpoint of the concentration-response curve, whichever way the signal moves. What is called IC50 is the concentration needed to halve the response being measured.

The structures appear in SMILES notation. A value given as a limit tells only on which side of the number the result lay.

T1 sequence (P04637 94-293, stated change not applied): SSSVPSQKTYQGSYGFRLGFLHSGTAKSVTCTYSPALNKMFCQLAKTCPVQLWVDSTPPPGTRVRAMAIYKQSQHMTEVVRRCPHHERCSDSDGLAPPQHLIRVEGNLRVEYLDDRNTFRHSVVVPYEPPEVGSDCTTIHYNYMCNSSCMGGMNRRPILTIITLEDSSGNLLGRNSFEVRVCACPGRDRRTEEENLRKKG

The molecule `CN1CC[C@@H](Nc2cccn3c(SC(F)(F)F)c(-c4noc(CNC(=O)COc5ccc(C#N)cc5)n4)cc23)[C@@H](F)C1` [Example 43, 2-(4-cyanophenoxy)-N-{[3-(8-{[(3S,4R)-3-fluoro-1-methylpiperidin-4-yl]amino}-3-[(trifluoromethyl)sulfanyl]indolizin-2-yl)-1,2,4-oxadiazol-5-yl]methyl}acetamide] had an equilibrium dissociation constant (Kd) in assay [1] of 10 to 100 nM. Moreover, the concentration at half-maximal activity (AC50) at p53 Y220C was 750 to 1500 nM. Further, the IC50 (with NUGC3 cells (p53 Y220C); in assay [2]) was 750 to 1500 nM throughout.
In assay [1], `CN1CC[C@@H](Nc2cccn3c(SC(F)(F)F)c(-c4noc(CNC(=O)C#CC5(NC(=O)OC(C)(C)C)CC5)n4)cc23)[C@@H](F)C1` [Example 44, tert-butyl N-{1-[2-({[3-(8-{[(3S,4R)-3-fluoro-1-methylpiperidin-4-yl]amino}-3-[(trifluoromethyl)sulfanyl]indolizin-2-yl)-1,2,4-oxadiazol-5-yl]methyl}carbamoyl)eth-1-yn-1-yl]cyclopropyl}carbamate] displayed a Kd of less than 10 nM. Further, the AC50 at p53 Y220C was less than 750 nM. The 50% inhibitory concentration (IC50) in the assay with NUGC3 cells (p53 Y220C) was 750 to 1500 nM; in assay [2], less than 750 nM.
Take `CN1CC[C@@H](Nc2cccn3c(SC(F)(F)F)c(-c4noc(CNC(=O)C56CC(NC(=O)OC(C)(C)C)(C5)C6)n4)cc23)[C@@H](F)C1` [Example 45, tert-butyl N-[3-({[3-(8-{[(3S,4R)-3-fluoro-1-methylpiperidin-4-yl]amino}-3-[(trifluoromethyl)sulfanyl]indolizin-2-yl)-1,2,4-oxadiazol-5-yl]methyl}carbamoyl)bicyclo[1.1.1]pentan-1-yl]carbamate]: the dissociation constant (Kd) in assay [1] was 10 to 100 nM. Further, the concentration at half-maximal activity (AC50) on p53 Y220C is not below 3000 nM. Also, the IC50 in the assay with NUGC3 cells (p53 Y220C) is 1500 to 3000 nM; in assay [2], not below 3000 nM.
Turning to `CN1CC[C@@H](Nc2cccn3c(SC(F)(F)F)c(-c4noc(CNC(=O)C5(c6ccc(F)cc6)CC5)n4)cc23)[C@@H](F)C1` [Example 46, N-{[3-(8-{[(3S,4R)-3-fluoro-1-methylpiperidin-4-yl]amino}-3-[(trifluoromethyl)sulfanyl]indolizin-2-yl)-1,2,4-oxadiazol-5-yl]methyl}-1-(4-fluorophenyl)cyclopropane-1-carboxamide], the Kd in assay [1] lay within 100 to 1000 nM. In addition, the AC50 on p53 Y220C is not below 3000 nM. Also, the concentration for half-maximal inhibition (IC50) (in the assay with NUGC3 cells (p53 Y220C); in assay [2]) was not below 3000 nM throughout.
`CN1CC[C@@H](Nc2cccn3c(SC(F)(F)F)c(-c4noc(CNC(=O)C5(C(F)(F)F)CC5)n4)cc23)[C@@H](F)C1` [Example 47, N-{[3-(8-{[(3S,4R)-3-fluoro-1-methylpiperidin-4-yl]amino}-3-[(trifluoromethyl)sulfanyl]indolizin-2-yl)-1,2,4-oxadiazol-5-yl]methyl}-1-(trifluoromethyl)cyclopropane-1-carboxamide]: the Kd in assay [1] lay within 10 to 100 nM. Also, the AC50 at p53 Y220C was not below 3000 nM. Moreover, the half-maximal inhibitory concentration (IC50) (in the assay on NUGC3 cells (p53 Y220C); in assay [2]) was not below 3000 nM in each case.
Turning to `CN1CC[C@@H](Nc2cccn3c(SC(F)(F)F)c(-c4noc(CNC(=O)C(C)(C)O)n4)cc23)[C@@H](F)C1` [Example 49, N-{[3-(8-{[(3S,4R)-3-fluoro-1-methylpiperidin-4-yl]amino}-3-[(trifluoromethyl)sulfanyl]indolizin-2-yl)-1,2,4-oxadiazol-5-yl]methyl}-2-hydroxy-2-methylpropanamide], the Kd in assay [1] fell in the range of 10 to 100 nM. On p53 Y220C, the concentration at half-maximal activity (AC50) fell in the range of 1500 to 3000 nM. The IC50 in the assay on NUGC3 cells (p53 Y220C) was not below 3000 nM; in assay [2], 1500 to 3000 nM.
`C[C@H](NC(=O)C1CC1)c1nc(-c2cc3c(N[C@@H]4CCN(C)C[C@@H]4F)cccn3c2SC(F)(F)F)no1` [Example 52, N-[(1S)-1-[3-(8-{[(3S,4R)-3-fluoro-1-methylpiperidin-4-yl]amino}-3-[(trifluoromethyl)sulfanyl]indolizin-2-yl)-1,2,4-oxadiazol-5-yl]ethyl]cyclopropanecarboxamide] gave a dissociation constant (Kd) in assay [1] of 10 to 100 nM. On p53 Y220C, the AC50 is not below 3000 nM. Also, the IC50 (in the assay on NUGC3 cells (p53 Y220C); in assay [2]) was not below 3000 nM each time.
As for `CNC(=O)c1ccc(NCc2nc(-c3cc4c(N[C@@H]5CCN(C)C[C@@H]5F)cccn4c3SC(F)(F)F)no2)nc1` [Example 54, 6-({[3-(8-{[(3S,4R)-3-fluoro-1-methylpiperidin-4-yl]amino}-3-[(trifluoromethyl)sulfanyl]indolizin-2-yl)-1,2,4-oxadiazol-5-yl]methyl}amino)-N-methylpyridine-3-carboxamide], the Kd in assay [1] was less than 10 nM. Further, the half-maximal activity concentration (AC50) at p53 Y220C is less than 750 nM. Besides, the 50% inhibitory concentration (IC50) (in the assay on NUGC3 cells (p53 Y220C); in assay [2]) was less than 750 nM each time.
On to `CN1CC[C@@H](Nc2cccn3c(SC(F)(F)F)c(-c4noc(CNC(=O)c5ccc(-c6ccn[nH]6)s5)n4)cc23)[C@@H](F)C1` [Example 56, N-{[3-(8-{[(3S,4R)-3-fluoro-1-methylpiperidin-4-yl]amino}-3-[(trifluoromethyl)sulfanyl]indolizin-2-yl)-1,2,4-oxadiazol-5-yl]methyl}-5-(2H-pyrazol-3-yl)thiophene-2-carboxamide], for which, in assay [1], the Kd fell in the range of 10 to 100 nM. On p53 Y220C, the half-maximal activity concentration (AC50) was in the range of 750 to 1500 nM. Moreover, the IC50 (in the assay on NUGC3 cells (p53 Y220C); in assay [2]) was less than 750 nM each time.
In assay [1], `CNC(=O)c1ccc(C(=O)NCc2nc(-c3cc4c(N[C@@H]5CCN(C)C[C@@H]5F)cccn4c3SC(F)(F)F)no2)cc1` [Example 57, N1—{[3-(8-{[(3S,4R)-3-fluoro-1-methylpiperidin-4-yl]amino}-3-[(trifluoromethyl)sulfanyl]indolizin-2-yl)-1,2,4-oxadiazol-5-yl]methyl}-N4-methylbenzene-1,4-dicarboxamide] yielded a Kd of less than 10 nM. Besides, the concentration at half-maximal activity (AC50) at p53 Y220C was less than 750 nM. In addition, the IC50 (in the assay on NUGC3 cells (p53 Y220C); in assay [2]) was less than 750 nM in each case.
Turning to `CNC(=O)c1cccc(C(=O)NCc2nc(-c3cc4c(N[C@@H]5CCN(C)C[C@@H]5F)cccn4c3SC(F)(F)F)no2)c1` [Example 58, N1—{[3-(8-{[(3S,4R)-3-fluoro-1-methylpiperidin-4-yl]amino}-3-[(trifluoromethyl)sulfanyl]indolizin-2-yl)-1,2,4-oxadiazol-5-yl]methyl}-N3-methylbenzene-1,3-dicarboxamide], in assay [1], the Kd was less than 10 nM. Besides, the AC50 at p53 Y220C is less than 750 nM. For the same molecule, the IC50 (with NUGC3 cells (p53 Y220C); in assay [2]) was less than 750 nM in each case.
With `CC(=O)NCc1nc(-c2cc3c(N[C@@H]4CCN(C)C[C@@H]4F)cccn3c2SC(F)(F)F)no1` [Example 59, N-{[3-(8-{[(3S,4R)-3-fluoro-1-methylpiperidin-4-yl]amino}-3-[(trifluoromethyl)sulfanyl]indolizin-2-yl)-1,2,4-oxadiazol-5-yl]methyl}acetamide], the Kd in assay [1] is less than 10 nM. For the same molecule, the AC50 at p53 Y220C lay in the range of 750 to 1500 nM. Also, the concentration for half-maximal inhibition (IC50) in the assay on NUGC3 cells (p53 Y220C) is 750 to 1500 nM; in assay [2], less than 750 nM.
As to `CC(C)C(=O)NCc1nc(-c2cc3c(N[C@@H]4CCN(C)C[C@@H]4F)cccn3c2SC(F)(F)F)no1` [Example 60, N-{[3-(8-{[(3S,4R)-3-fluoro-1-methylpiperidin-4-yl]amino}-3-[(trifluoromethyl)sulfanyl]indolizin-2-yl)-1,2,4-oxadiazol-5-yl]methyl}-2-methylpropanamide], the dissociation constant Kd in assay [1] was 10 to 100 nM. Besides, the AC50 on p53 Y220C was 1500 to 3000 nM. Moreover, the concentration for half-maximal inhibition (IC50) (in the assay with NUGC3 cells (p53 Y220C); in assay [2]) was 1500 to 3000 nM throughout.
The molecule `COC(C)(C)C(=O)NCc1nc(-c2cc3c(N[C@@H]4CCN(C)C[C@@H]4F)cccn3c2SC(F)(F)F)no1` [Example 61, N-{[3-(8-{[(3S,4R)-3-fluoro-1-methylpiperidin-4-yl]amino}-3-[(trifluoromethyl)sulfanyl]indolizin-2-yl)-1,2,4-oxadiazol-5-yl]methyl}-2-methoxy-2-methylpropanamide] gave a dissociation constant Kd in assay [1] of 10 to 100 nM. Besides, on p53 Y220C, the AC50 was not below 3000 nM. Further, the IC50 (in the assay with NUGC3 cells (p53 Y220C); in assay [2]) was not below 3000 nM each time.
In turn, `CN1CC[C@@H](Nc2cccn3c(SC(F)(F)F)c(-c4noc(CNC(=O)[C@H]5C[C@@H](O)C5)n4)cc23)[C@@H](F)C1` [Example 62, (1s,3s)-N-{[3-(8-{[(3S,4R)-3-fluoro-1-methylpiperidin-4-yl]amino}-3-[(trifluoromethyl)sulfanyl]indolizin-2-yl)-1,2,4-oxadiazol-5-yl]methyl}-3-hydroxycyclobutane-1-carboxamide] had a Kd in assay [1] of less than 10 nM. The half-maximal activity concentration (AC50) at p53 Y220C is 1500 to 3000 nM. Further, the results for the concentration for half-maximal inhibition (IC50) (in the assay on NUGC3 cells (p53 Y220C); in assay [2]) were 1500 to 3000 nM and 750 to 1500 nM, respectively.
As to `C[C@@H](O)CC(=O)NCc1nc(-c2cc3c(N[C@@H]4CCN(C)C[C@@H]4F)cccn3c2SC(F)(F)F)no1` [Example 63, (3R)-N-{[3-(8-{[(3S,4R)-3-fluoro-1-methylpiperidin-4-yl]amino}-3-[(trifluoromethyl)sulfanyl]indolizin-2-yl)-1,2,4-oxadiazol-5-yl]methyl}-3-hydroxybutanamide], the dissociation constant Kd in assay [1] is less than 10 nM. In addition, the concentration at half-maximal activity (AC50) at p53 Y220C is 1500 to 3000 nM. Moreover, the values for the IC50 (with NUGC3 cells (p53 Y220C); in assay [2]) were 1500 to 3000 nM and not below 3000 nM, respectively.

Values taken from patent publication US20260347353A1, “INDOLIZINE DERIVATIVES FOR TREATING CANCER” (Antares Therapeutics, Inc., priority 2022, published 2026).
